“Also recorded” adds a separate entry of the source.
Columns and labels:
[1] = test system: adult rat dissociated dorsal root ganglion (DRG) neurons; assay: Intracellular delivery of fluorescent doxorubicin into dissociated DRG neurons with the TRPV1 agonist capsaicin (micrographs); assay type: cell-based; settings: 2 mM doxorubicin/1 mM capsaicin for 5 minutes vs 2 mM doxorubicin alone for 20 minutes; fluorescence micrographs, FIG. 2
Method: FIG. 2 is a series of micrographs showing intracellular delivery of doxorubicin into adult rat dissociated dorsal root ganglion (DRG) neurons. The DRG neurons were treated with vehicle control (FIG. 2A), 2 mM doxorubicin (Adriamycin®) for 20 minutes (FIG. 2B), or 2 mM doxorubicin (Adriamycin®)/1 mM capsaicin for 5 minutes (FIG. 2C). […] The size and number of the fluorescently labeled neurons are similar to those of TRPV1 expressing neurons.
The selective administration of compounds or agents that are cytotoxic to cancer cells is accomplished by the co-administration of capsaicin, an agonist of the large-pore cation channel receptor TRPV1, along with doxorubicin (Adriamycin®).

[2] = test system: adult rat dissociated dorsal root ganglion (DRG) neurons; assay: Intracellular delivery of fluorescent doxorubicin into dissociated DRG neurons with the TRPM8 agonist menthol (micrographs); assay type: cell-based; settings: 2 mM doxorubicin/100 mM L-menthol for 10 minutes vs 2 mM doxorubicin alone for 20 minutes; fluorescence micrographs, FIG. 1
Method: FIG. 1 is a series of micrographs showing intracellular delivery of doxorubicin a fluorescent antiproliferative agent into adult rat dissociated dorsal root ganglion (DRG) neurons. The DRG neurons were treated with vehicle control (FIG. 1A), 2 mM doxorubicin (Adriamycin®) for 20 minutes (FIG. 1B), or 2 mM doxorubicin/100 mM L-menthol for 10 minutes (FIG. 1C). […] The size and number of the fluorescently labeled neurons are similar to those of TRPM8 expressing neurons.
The selective administration of compounds or agents that are cytotoxic to cancer cells is accomplished by the co-administration of menthol, an agonist of the large-pore cation channel receptor TRPM8, along with the antiproliferative agent doxorubicin (Adriamycin®). […] Once doxorubicin is within a cell it enters the nucleus where it binds to DNA.

With COc1cccc2c1C(=O)c1c(O)c3c(c(O)c1C2=O)C[C@@](O)(C(=O)CO)C[C@@H]3O[C@H]1C[C@H](N)[C@H](O)[C@H](C)O1 [doxorubicin] the “intracellular delivery/accumulation of doxorubicin” value [1] was “only entered into cells in the presence of capsaicin; also recorded: intracellular accumulation of the doxorubicin only into those DRG neurons that express TRPV1” and the “intracellular delivery/accumulation of doxorubicin” value [2] was “only entered into cells in the presence of menthol; also recorded: intracellular accumulation of the doxorubicin only into those DRG neurons that express TRPM8”.

From patent US20100311678A1, “METHODS AND COMPOSITIONS FOR TREATING CANCER AND MODULATING SIGNAL TRANSDUCTION AND METABOLISM PATHWAYS” (priority 2007, published 2010)
